Results reported in ChEMBL document CHEMBL5727538, “Pyridazinones as PARP7 inhibitors” (2020).

The compounds below were run against T1, Protein mono-ADP-ribosyltransferase TIPARP (Homo sapiens, UniProt Q7Z3E1) (assay: Enzymatic Assay for Inhibition of PARP7: Displacement of Probe A, a biotinylated probe binding to the TIPARP active site, was measured using a time-resolved fluorescence energy transfer (TR-FRET) assay. 20 nL of a dose response curve of each test compound was spotted in black 384-well polystyrene proxiplates (Perkin Elmer) using a Mosquito (TTP Labtech). Reactions were performed in a 8 μL volume by adding 6 μL of TIPARP and Probe A in assay buffer (20 mM HEPES pH=8, 100 mM NaCl, 0.1% bovine serum albumin, 2 mM DTT and 0.002% Tween20), incubating with test compound at 25° C. for 30 min, then adding 2 μL of ULight-anti 6×His and LANCE Eu-W1024 labeled streptavidin (Perkin Elmer). The final concentrations of TIPARP and Probe A were 6 nM and 2 nM, respectively. The final concentration of ULight-anti 6xHis and LANCE Eu-W1024 labeled streptavidin were 4 nM and 0.25 nM, respectively. Reactions were incubated at 25° C. for an additional 30 min, then read on an Envision platereader equipped with a LANCE/DELFIA top mirror (Perkin Elmer) using excitation of 320 nm and emission of 615 nm and […] with a 90 μs delay. The ratio of the 665/615 nm emission were calculated for each well to determine the amount of complex of TIPARP and Probe A in each well. […] The Hill Coefficient is normally allowed to float but may also be fixed at 1 in a 3-parameter fit. Y is the % inhibition and x is the compound concentration.).
T1 sequence (Q7Z3E1 whole entry): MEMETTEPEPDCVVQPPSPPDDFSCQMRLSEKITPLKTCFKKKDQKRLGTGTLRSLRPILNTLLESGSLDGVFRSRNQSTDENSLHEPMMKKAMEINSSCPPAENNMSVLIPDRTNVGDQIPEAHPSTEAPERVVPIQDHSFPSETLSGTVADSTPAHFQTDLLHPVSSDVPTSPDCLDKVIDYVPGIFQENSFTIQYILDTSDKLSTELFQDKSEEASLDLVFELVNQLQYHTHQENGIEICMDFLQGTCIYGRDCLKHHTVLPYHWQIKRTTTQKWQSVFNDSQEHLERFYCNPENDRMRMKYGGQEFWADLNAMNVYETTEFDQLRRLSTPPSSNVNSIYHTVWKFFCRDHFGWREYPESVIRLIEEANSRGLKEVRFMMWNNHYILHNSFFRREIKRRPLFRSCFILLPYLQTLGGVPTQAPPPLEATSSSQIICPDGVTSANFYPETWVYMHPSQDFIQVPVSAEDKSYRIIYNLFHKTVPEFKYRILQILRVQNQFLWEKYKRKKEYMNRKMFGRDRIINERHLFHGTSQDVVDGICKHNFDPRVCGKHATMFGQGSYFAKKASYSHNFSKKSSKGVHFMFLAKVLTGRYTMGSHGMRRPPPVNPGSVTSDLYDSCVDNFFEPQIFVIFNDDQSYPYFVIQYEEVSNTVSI
Compound `O=C(COC[C@@H]1CCCN1c1cn[nH]c(=O)c1C(F)(F)F)N[C@H]1CC[C@@H](Nc2ccccn2)CC1` has an IC50 of 0.1 to 1 µM. In the case of `N#Cc1ccc(N2CCN(C(=O)[C@H]3C[C@H](OC[C@@H]4CCCN4c4cn[nH]c(=O)c4C(F)(F)F)C3)CC2)nc1`, the IC50 is reported as < 0.1 µM. In the case of `O=c1[nH]ncc(N2Cc3cccc(O)c3C2)c1C(F)(F)F`, the IC50 is reported as < 0.1 µM. In the case of `N#Cc1ccc(N2CCN(C(=O)CC3COCCN3c3cn[nH]c(=O)c3C(F)(F)F)CC2)nc1` (stereo not drawn), the IC50 is reported as < 0.1 µM. For `O=C(CCOC[C@H](Nc1cn[nH]c(=O)c1C(F)(F)F)C1CCNCC1)N1CCN(c2ncc(C(F)(F)F)cn2)CC1`, the IC50 was < 0.1 µM. `O=C(CCOC[C@@H]1CCCN1c1cn[nH]c(=O)c1C(F)(F)F)N[C@H]1CC[C@H](Nc2ccccn2)CC1` showed an IC50 of 0.1 to 1 µM. In the case of `N#Cc1ccc(N2CCN(C(=O)CCOCCOC3CN(c4cn[nH]c(=O)c4C(F)(F)F)C3)CC2)nc1`, the IC50 is reported as > 1 µM. `C[C@@H](COCCC(=O)N1CCC(Nc2ncc(C(F)(F)F)s2)C1)Nc1cn[nH]c(=O)c1C(F)(F)F` (stereo partly drawn) was tested, and the IC50 was < 0.1 µM.
